Measurements from patent publication EP0140492B1 (WARNER-LAMBERT COMPANY, priority 1983, dated 1985).
Like-named read-outs stand apart in the source and are kept apart here. Marks after values point to notes of the source that are not given here.

Assay: Plasma levels of isoxicam and bioavailability parameters after a single oral dose to beagle dogs
Assay type: in vivo
Conditions: for Plasma levels of isoxicam / Plasma levels of isoxicam, Mean: 100 mg/dog oral (isoxicam equivalents); for AUC(0-inf) / half-life / Cmax / Tmax: dog, in vivo, po, 100 mg; for Tmax: read-out: Tmax; for Plasma levels of isoxicam, Mean: mean of dogs
Experimental: The range for the individual animals was 51.4 to 63.0 µg/ml with three animals having a peak time of two hours and the final animal at eight hours. These plasma levels were considerably higher when compared to micronized isoxicam. […] Peak plasma concentrations for individual animals ranged from […] between three and six hours postdose.
Areas under the plasma concentrations versus time curve (AUC^0-∞) were calculated using the trapezoidal rule and extrapolated to infinity with the appropriate elimination rate constants.

[1] = Mean of four dogs, oral 100 mg (free acid equivalents)
[2] = dog 1930, oral 100 mg (free acid equivalents)
[3] = dog 1942, oral 100 mg (free acid equivalents)
[4] = dog 117668, oral 100 mg (free acid equivalents)
[5] = dog 120064, oral 100 mg (free acid equivalents)

Compound: Cc1cc(NC(=O)C2=C(O)c3ccccc3S(=O)(=O)N2C)no1 [arginine isoxicamate, L-arginine isoxicamate]
- Plasma levels of isoxicam (dog 1930, time 0.5 h postdose): 29.6 µg/mL
- Plasma levels of isoxicam (dog 1930, time 1.0 h postdose): 43.4 µg/mL
- Plasma levels of isoxicam (dog 1930, time 2.0 h postdose): 51.4 µg/mL
- Plasma levels of isoxicam (dog 1930, time 3.0 h postdose): 47.5 µg/mL
- Plasma levels of isoxicam (dog 1930, time 4.0 h postdose): 48.9 µg/mL
- Plasma levels of isoxicam (dog 1930, time 6.0 h postdose): 48.3 µg/mL
- Plasma levels of isoxicam (dog 1930, time 8.0 h postdose): 42.6 µg/mL
- Plasma levels of isoxicam (dog 1930, time 12.0 h postdose): 37.8 µg/mL
- Plasma levels of isoxicam (dog 1930, time 24.0 h postdose): 32.8 µg/mL
- Plasma levels of isoxicam (dog 1930, time 32.0 h postdose): 25.2 µg/mL
- Plasma levels of isoxicam (dog 1930, time 48.0 h postdose): 25.0 µg/mL
- Plasma levels of isoxicam (dog 1930, time 72.0 h postdose): 14.6 µg/mL
- Plasma levels of isoxicam (dog 1930, time 96.0 h postdose): 10.2 µg/mL
- Plasma levels of isoxicam (dog 1930, time 192.0 h postdose): 1.56 µg/mL
- Plasma levels of isoxicam (dog 1930, time 240.0 h postdose): 0.89 µg/mL
- Plasma levels of isoxicam (dog 1942, time 0.5 h postdose): 7.99 µg/mL
- Plasma levels of isoxicam (dog 1942, time 1.0 h postdose): 28.1 µg/mL
- Plasma levels of isoxicam (dog 1942, time 2.0 h postdose): 58.6 µg/mL
- Plasma levels of isoxicam (dog 1942, time 3.0 h postdose): 51.7 µg/mL
- Plasma levels of isoxicam (dog 1942, time 4.0 h postdose): 53.9 µg/mL
- Plasma levels of isoxicam (dog 1942, time 6.0 h postdose): 50.5 µg/mL
- Plasma levels of isoxicam (dog 1942, time 8.0 h postdose): 42.2 µg/mL
- Plasma levels of isoxicam (dog 1942, time 12.0 h postdose): 39.4 µg/mL
- Plasma levels of isoxicam (dog 1942, time 24.0 h postdose): 35.6 µg/mL
- Plasma levels of isoxicam (dog 1942, time 32.0 h postdose): 25.7 µg/mL
- Plasma levels of isoxicam (dog 1942, time 48.0 h postdose): 25.5 µg/mL
- Plasma levels of isoxicam (dog 1942, time 72.0 h postdose): 17.1 µg/mL
- Plasma levels of isoxicam (dog 1942, time 96.0 h postdose): 8.96 µg/mL
- Plasma levels of isoxicam (dog 1942, time 153.5 h postdose): 2.34 µg/mL
- Plasma levels of isoxicam (dog 1942, time 192.0 h postdose): 1.28 µg/mL
- Plasma levels of isoxicam (dog 1942, time 240.0 h postdose): 0.60 µg/mL
- Plasma levels of isoxicam (dog 117668, row 192.0, actual time=193 hours): 0.85* µg/ml
- Plasma levels of isoxicam (dog 117668, time 0.5 h postdose): 22.8 µg/mL
- Plasma levels of isoxicam (dog 117668, time 1.0 h postdose): 42.6 µg/mL
- Plasma levels of isoxicam (dog 117668, time 3.0 h postdose): 55.1 µg/mL
- Plasma levels of isoxicam (dog 117668, time 4.0 h postdose): 59.3 µg/mL
- Plasma levels of isoxicam (dog 117668, time 6.0 h postdose): 50.2 µg/mL
- Plasma levels of isoxicam (dog 117668, time 8.0 h postdose): 63.0 µg/mL
- Plasma levels of isoxicam (dog 117668, time 24.0 h postdose): 30.5 µg/mL
- Plasma levels of isoxicam (dog 117668, time 32.0 h postdose): 29.6 µg/mL
- Plasma levels of isoxicam (dog 117668, time 48.0 h postdose): 18.6 µg/mL
- Plasma levels of isoxicam (dog 117668, time 72.0 h postdose): 10.7 µg/mL
- Plasma levels of isoxicam (dog 117668, time 96.0 h postdose): 5.10 µg/mL
- Plasma levels of isoxicam (dog 117668, time 153.5 h postdose): 1.27 µg/mL
- Plasma levels of isoxicam (dog 117668, time 240.0 h postdose): 0.51 µg/mL
- Plasma levels of isoxicam (dog 120064, row 192.0, actual time=193 hours): 2.17* µg/ml
- Plasma levels of isoxicam (dog 120064, time 0.5 h postdose): 1.11 µg/mL
- Plasma levels of isoxicam (dog 120064, time 1.0 h postdose): 15.5 µg/mL
- Plasma levels of isoxicam (dog 120064, time 2.0 h postdose): 51.8 µg/mL
- Plasma levels of isoxicam (dog 120064, time 3.0 h postdose): 46.3 µg/mL
- Plasma levels of isoxicam (dog 120064, time 4.0 h postdose): 50.5 µg/mL
- Plasma levels of isoxicam (dog 120064, time 6.0 h postdose): 49.6 µg/mL
- Plasma levels of isoxicam (dog 120064, time 8.0 h postdose): 42.0 µg/mL
- Plasma levels of isoxicam (dog 120064, time 24.0 h postdose): 31.3 µg/mL
- Plasma levels of isoxicam (dog 120064, time 32.0 h postdose): 34.8 µg/mL
- Plasma levels of isoxicam (dog 120064, time 48.0 h postdose): 21.5 µg/mL
- Plasma levels of isoxicam (dog 120064, time 72.0 h postdose): 17.6 µg/mL
- Plasma levels of isoxicam (dog 120064, time 96.0 h postdose): 9.39 µg/mL
- Plasma levels of isoxicam (dog 120064, time 153.5 h postdose): 3.52 µg/mL
- Plasma levels of isoxicam (dog 120064, time 240.0 h postdose): 1.26 µg/mL
- AUC(0-inf) [1]: 2840 µg·h/mL
- half-life (Mean of four dogs, oral 100 mg (free acid equivalents), elimination half-life, read-out: Half-life (converted)): 36.2 h
- Cmax (Mean of four dogs, oral 100 mg (free acid equivalents), read-out: Cmax): 55300 ng/mL
- Tmax [1]: 3 h
- AUC(0-inf) [2]: 2910 µg·h/mL
- half-life (dog 1930, oral 100 mg (free acid equivalents), elimination half-life, read-out: Half-life (converted)): 38.8 h
- Cmax (dog 1930, oral 100 mg (free acid equivalents), read-out: Cmax): 51400 ng/mL
- Tmax [2]: 2 h
- AUC(0-inf) [3]: 2920 µg·h/mL
- half-life (dog 1942, oral 100 mg (free acid equivalents), elimination half-life, read-out: Half-life (converted)): 34.4 h
- Cmax (dog 1942, oral 100 mg (free acid equivalents), read-out: Cmax): 58600 ng/mL
- Tmax [3]: 2 h
- AUC(0-inf) [4]: 2590 µg·h/mL
- half-life (dog 117668, oral 100 mg (free acid equivalents), elimination half-life, read-out: Half-life (converted)): 27 h
- Cmax (dog 117668, oral 100 mg (free acid equivalents), read-out: Cmax): 59300 ng/mL
- Tmax [4]: 6 h
- AUC(0-inf) [5]: 2950 µg·h/mL
- half-life (dog 120064, oral 100 mg (free acid equivalents), elimination half-life, read-out: Half-life (converted)): 44.8 h
- Cmax (dog 120064, oral 100 mg (free acid equivalents), read-out: Cmax): 51800 ng/mL
- Tmax [5]: 2 h
- Cmax (four dogs, 100 mg oral, read-out: Mean Cmax): 56200 ± 5600 ng/mL
- half-life (four dogs, 100 mg oral, read-out: Mean half-lives (elimination, linear regression of semilogarithmic data) (converted)): 36.2 ± 7.5 h
- mean AUC^0-∞ (four dogs, 100 mg oral, trapezoidal rule extrapolated to infinity): 2840 ± 170 µg·h/mL
- Plasma levels of isoxicam, Mean (time 0.5 h postdose): 15400 ng/mL
- Plasma levels of isoxicam, Mean (time 1.0 h postdose): 32400 ng/mL
- Plasma levels of isoxicam, Mean (time 2.0 h postdose): 53900 ng/mL
- Plasma levels of isoxicam, Mean (time 3.0 h postdose): 50200 ng/mL
- Plasma levels of isoxicam, Mean (time 4.0 h postdose): 53200 ng/mL
- Plasma levels of isoxicam, Mean (time 6.0 h postdose): 49600 ng/mL
- Plasma levels of isoxicam, Mean (time 8.0 h postdose): 47400 ng/mL
- Plasma levels of isoxicam, Mean (time 12.0 h postdose): 38600 ng/mL
- Plasma levels of isoxicam, Mean (time 24.0 h postdose): 32600 ng/mL
- Plasma levels of isoxicam, Mean (time 32.0 h postdose): 28800 ng/mL
- Plasma levels of isoxicam, Mean (time 48.0 h postdose): 22600 ng/mL
- Plasma levels of isoxicam, Mean (time 72.0 h postdose): 15000 ng/mL
- Plasma levels of isoxicam, Mean (time 96.0 h postdose): 8410 ng/mL
- Plasma levels of isoxicam, Mean (time 153.5 h postdose): 2460 ng/mL
- Plasma levels of isoxicam, Mean (time 192.0 h postdose (two dogs actually 193 hours)): 1460 ng/mL
- Plasma levels of isoxicam, Mean (time 240.0 h postdose): 820 ng/mL
- mean peak plasma concentration (reached at two hours postdose, 100 mg (free acid equivalents) per oral dose, dogs): 53.9±4.0 Ilg/ml
- peak time (the final (fourth) animal, 100 mg oral): eight
- peak time (three animals of four, 100 mg oral): two
